Measurements: publication PMC5294416, “Novel peptides for deciphering structural and signalling functions of E-cadherin in mouse embryonic stem cells” (Scientific Reports, 2017)
Primed or numbered codes have the meaning given here. Ends that are not written are not given here. FITC′ = fluorescein-5(6)-isothiocyanate; Nova linker = not defined here

Tests used:
[1] = molecular target: T1, recombinant mouse E-Cadherin Fc Chimera (Mus musculus, UniProt P09803); assay: Biacore SPR equilibrium binding analysis (affinity capture); conditions: equilibrium analysis using affinity capture on HTE chip, peptide stock in water, average of three runs, running buffer HBS/0.02% Tween/2 mM CaCl2/1 mM MgCl2
T1 construct: purchased R&D Systems
Method: Biacore SPR analysis was used to measure the interaction between peptides and recombinant mouse E-Cadherin Fc Chimera (R&D Systems). Analytes were passed over an HTE chip with surface bound His-tagged Recombinant Mouse E-Cadherin Fc Chimera (R&D Systems). The kinetics of interaction, i.e. the rates of complex formation (ka) and dissociation (kd), were determined and Integrin α4β7 protein was used as a control. Analysis was performed by the Biomolecular Analysis Core Facility (The University of Manchester, UK) on a Proteon XPR-36 protein interaction array system (Bio-Rad) using a HTE chip for high capacity His-tagged protein capture (Bio-Rad). Equilibrium analysis runs were performed three times and an average KD was calculated. Running buffer: HBS/0.02%, Tween/2 mM, CaCl2/1 mM MgCl2.

[2] = tested on: wtD3 mESCs; assay type: cell-based; conditions: 24 h, 10 μM
Excerpt: Cell viability was quantified using an Alexa Fluor 488 Annexin V/Dead Cell Apoptosis Kit (Invitrogen) according to the manufacturer’s instructions.

[3] = tested on: wtD3 mESCs; assay: Loss of cell-cell contact, phase contrast microscopy; assay type: cell-based, mouse; conditions: for Effect on cell-cell contact (in words): wtD3 mESCs, 10 μM peptide, 24 h, phase contrast
Method: (§1) Unless otherwise stated, mESC lines were grown on gelatinised tissue culture grade 6-well plates at 37 °C/5% CO2, as previously described. mESCs cells were treated with 10 μM peptide in mESC culture medium which was replenished every 24 h. Inhibition of specific pathways in mESCs was achieved by incubation with 10 μM LY294002 (PI3K inhibitor), PD9805 (MEK inhibitor) and SB431542 (TGFβ1 R inhibitor).

[4] = Water solubility of peptides; assay type: physicochemical
Method: All peptides were synthesised by Severn Biotech Ltd (UK) as a lyophilized powder. Peptides were solubilised to a stock solution of 100 mM in ddH20, unless otherwise stated. Peptides were tagged with a Fluorescin-5(6) molecule at the NH2-terminus, separated by a Nova linker molecule, and assessed for activity prior to use (inhibition of cell-cell contact).

[5] = tested on: OCT4 protein in wtD3 mESCs; assay: Immunofluorescence microscopy analysis of OCT4 protein expression with pathway inhibitors; assay type: cell-based, mouse; conditions: for OCT4 protein expression, inhibitor with vehicle control: wtD3 mESCs, no peptide, after 5 days
Method: as §1
(§2) Monolayer cultured mESCs were fixed in situ in 4% w/v PFA in PBS for 30 minutes at room temperature, washed twice with PBS and blocked with 1% goat serum in 0.1% w/v BSA, 0.1% Triton X-100 in PBS for 30 minutes. Cells were incubated in the appropriate primary antibody in goat blocking buffer for two hours at RT. Cells were washed three times in PBS and incubated in the appropriate Alexa fluor-488 or −546 conjugated secondary antibody at RT for 1 hour in the dark. Cells were washed three times with PBS, mounted in 4′6-diamidino-2-phenylindole (DAPI) (Vector Laboratories) and visualized using a Leica DM6000B fluorescence microscope (Leica Microsystems) and processed using Leica LAS X Core software (Leica Microsystems). Primary antibodies: anti-Nanog, 1:200 dilution (ab80892, Abcam Plc, Cambridge, UK); anti-Oct4, 1:200 dilution (ab19857, Abcam Plc, Cambridge, UK). For immunofluorescence microscopy analysis of fluorescent-tagged peptides, cells were incubated in 500 μM peptide in cell culture medium for 15 minutes, washed twice in ice cold PBS and mounted with Vectorshield containing DAPI. Cells were visualized using a Leica DM6000B fluorescence microscope (Leica Microsystems) and processed using Leica LAS X Core software (Leica Microsystems).
(§3) Images were imported into ImageJ and fluorescence intensity measured using the Analyse > Measure function on areas selected using the rectangular or oval selection icons.

[6] = tested on: wtD3 and Ecad−/− mESCs; assay: Binding of fluorescent-tagged peptides to wtD3 versus Ecad−/− mESCs; assay type: cell-based, mouse; conditions: fluorescein-tagged peptide, 500 μM, 15 minutes, 37 °C, immunofluorescence microscopy / flow cytometry
Method: D3 and Ecad^−/− mESCs were treated with Epep-F or EpepW2R-F at concentrations of 0 (control), 5, 10, 25, 50 and 500 μM in culture medium as a monolayer on ice. Ice cold conditions were utilised to minimise endocytosis of fluorescent tagged peptide. Cells were harvested using cell dissociation buffer, centrifuged and washed with PBS and fixed in 500 μl 1% w/v paraformaldehyde (PFA) in PBS for analysis using a FACSCalibur (BD Biosciences, California, USA). Viable cells were gated using forward scatter and side scatter and all data shown represents quantification of the fluorescence emitted by this population.
Monolayer cultured mESCs were fixed in situ in 4% w/v PFA in PBS for 30 minutes at room temperature, washed twice with PBS and blocked with 1% goat serum in 0.1% w/v BSA, 0.1% Triton X-100 in PBS for 30 minutes. Cells were incubated in the appropriate primary antibody in goat blocking buffer for two hours at RT. […] Cells were washed three times with PBS, mounted in 4′6-diamidino-2-phenylindole (DAPI) (Vector Laboratories) and visualized using a Leica DM6000B fluorescence microscope (Leica Microsystems) and processed using Leica LAS X Core software (Leica Microsystems). […] Cells were visualized using a Leica DM6000B fluorescence microscope (Leica Microsystems) and processed using Leica LAS X Core software (Leica Microsystems). […]

[7] = tested on: STAT3 phosphorylation in wtD3 mESCs; assay: Western blot analysis of phosphorylated STAT3; assay type: cell-based, mouse; conditions: wtD3 mESCs vs control treated cells, western blot
Method: as §1
Cells were harvested using cell dissociation buffer, centrifuged and washed with PBS prior to lysis using Radioimmunoprecipitation (RIPA) buffer (Sigma) containing protease inhibitor cocktail tablets (1 tablet per 10 ml RIPA buffer) (Roche Applied Science) at a concentration of 2 × 10^7 cell/ml. Lysates were separated by SDS-PAGE and electrotransferred onto nitrocellulose membrane as previously described. The membrane was probed using the appropriate primary antibody with subsequent incubation with HRP-conjugated secondary antibody. The membrane was exposed to an autoradiographic film (Hyperfilm ECL, GE Healthcare, Amersham, UK) for the appropriate time period in an X-ray cassette before the film was manually developed in a dark room using Kodak GBX developer and fixer solutions (Sigma, Dorset, UK). Primary antibodies: anti-α-tubulin, 1:2000 dilution (T9026, Sigma, Dorset, UK); anti-AKT, 1:200 dilution (#9272, Cell Signalling Technology, MA, USA); anti-pAKT (Ser473), 1:200 (#4060S, Cell Signalling Technology, MA, USA); anti-STAT3, 1:200 dilution (SC-482, Santa Cruz Biotechnology Inc, TX, USA); anti-pSTAT3, 1:200 dilution (#9138S, Cell Signalling Technology, MA, USA).

[8] = tested on: Nanog, Klf4, Tbx3, Esrrb, Nr0b1, Nr5a2 and Tet1 transcripts in wtD3 mESCs; assay: qPCR analysis of pluripotency transcript expression; assay type: cell-based, mouse
Method: as §1
Primers for qPCR were designed using the Roche Applied science Universal Probe Library software and BLAST screened for sequence specificity. Only primers producing a single dissociation peak were used. RNA was extracted from mESCs and cDNA at a concentration of 2 ng/μl was used for analysis in a MicroAmp Optical 96-well Reaction Plate (Applied Biosystems) using SYBR green Jumpstart Taq ReadyMix (Applied Biosystems). Primer sequences: 18srRNA Forward (F) […], Reverse (R) […]; ESRRB F-[…], R-[…]; KLF4 F-[…], R-ATGTCCGCCAGGTTGAAG; NANOG F-[…], R-[…]; NR0B1 F-[…], R-[…]; NR5A2 F-[…], R-[…]; TBX3 F-[…], R-[…]; TET1 F-[…], R-[…].

[9] = tested on: NANOG protein in wtD3 mESCs; assay: Immunofluorescence microscopy analysis of NANOG protein expression; assay type: cell-based, mouse; conditions: 96 h / 4 days where stated
Method: as §2, with “For immunofluorescence microscopy analysis of fluorescent-tagged peptides, cells were incubated in 500 μM peptide in cell culture medium for 15 minutes, washed twice in ice cold PBS and mounted with Vectorshield containing DAPI.” left out
as §3

[10] = tested on: pERK1/2 in wtD3 mESCs; assay: Western blot analysis of phosphorylated ERK1/2; assay type: cell-based, mouse
[11] = tested on: mESCs; assay: Cell viability in monolayer culture; assay type: cell-based, mouse; conditions: data not shown
[12] = molecular target: T2, His-tagged Recombinant Mouse E-Cadherin Fc Chimera, P09803; assay: Biacore SPR equilibrium affinity capture analysis; conditions: chain shown with the change
T2 chain: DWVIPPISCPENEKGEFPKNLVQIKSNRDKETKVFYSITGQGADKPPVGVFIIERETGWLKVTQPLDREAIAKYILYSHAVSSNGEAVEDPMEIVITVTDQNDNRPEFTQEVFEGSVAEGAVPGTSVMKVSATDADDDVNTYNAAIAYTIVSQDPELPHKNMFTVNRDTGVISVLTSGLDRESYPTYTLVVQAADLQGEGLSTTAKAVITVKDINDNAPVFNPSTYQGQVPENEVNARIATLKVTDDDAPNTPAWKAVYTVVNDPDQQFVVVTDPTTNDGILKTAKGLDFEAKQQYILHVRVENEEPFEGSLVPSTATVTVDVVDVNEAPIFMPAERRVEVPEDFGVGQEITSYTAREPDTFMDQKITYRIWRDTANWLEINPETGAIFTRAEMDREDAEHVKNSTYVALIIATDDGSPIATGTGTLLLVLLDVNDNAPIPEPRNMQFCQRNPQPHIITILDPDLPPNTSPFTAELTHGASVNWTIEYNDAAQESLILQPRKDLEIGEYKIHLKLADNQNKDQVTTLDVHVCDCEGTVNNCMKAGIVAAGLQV

[13] = molecular target: His-tagged Recombinant Mouse E-Cadherin Fc Chimera (mouse) (UniProt P09803); assay: SPR; as a1, E-cadherin-Fc captured on the HTE chip; peptide dissolved in 10%v/v DMSO/H2O; EpepP7R at 0.3, 1, 3, 5, 10 μM; equilibrium analysis
[14] = transcript, mESCs, Fig. 6a summary

With SWEAYYPLRANL [EpepL4A] the Kd [1] was 3.61 µM.

With SWELAYPLRANL [EpepY5A] the Kd [1] was 8.82 µM.

In the case of SWELYYP [EpepΔCtm], the Kd [1] is reported as 2.7 µM and the “viable population (lower left box)” value [2] is reported as 59.1%.

With “SWELYYRLRANL-NH2 (C-terminus assumed) [EpepP7R]” the “Loss of cell-cell contact (10μM)?” value ([3]; mESCs, 10 μM, Fig. 6a summary) was “YES”, the “Effect on cell-cell contact (in words)” value [3] was “Abrogation of E-cadherin mediated cell-cell contact was observed with EpepP7R (Fig. 5c and Figure S1b), although cell dissociation was reduced compared to Epep” and the “solvent required for complete solubilization” value ([4]; 100 mM stock) was 10%v/v DMSO/H2O. It also gave a solubility in water ([4]; lyophilized powder, stock in water) of under 100 mM.

For SAELYYPLRANL [EpepW2A], the Kd [1] was 55 µM.

For `Cc1c[nH]c(/C=C2\C(=O)Nc3ccccc32)c1CCC(=O)O` [SU5402], the “OCT4 protein expression, inhibitor with vehicle control” value [5] was “maintained expression of OCT4 protein”.

In the case of “Epep-F: Epep with fluorescein-5(6)-isothiocyanate label conjugated to the NH2-terminus via a Nova linker ({FITC′-Nova linker}-SWELYYPLRANL; reading uncertain)”, the “Effect on cell-cell contact (in words)” value [3] is reported as “loss of cell-cell contact” and the “Binding of fluorescent-tagged peptide to wtD3 versus Ecad−/− mESCs” value [6] is reported as “preferential binding to wtD3 ESCs”.

For SWELYAPLRANL [EpepY6A], the Kd [1] was 21.4 µM.

Molecule SWALYYPLRANL [EpepE3A] has a Kd [1] of 6.9 µM.

With “SRELYYPLRANL [EpepW2R, Epep with the Trp-2 residue replaced with arginine, …]” the KD [1] was “did not produce a strong enough response to perform equilibrium analysis”, the “Effect on cell-cell contact (in words)” value [3] was “did not induce loss of cell-cell contact” and the “Effect on STAT3 phosphorylation (in words)” value [7] was “unaffected”. The “Loss of Nanog” value [8, 14] was “YES”, the “Loss of Nr0b1” value [8, 14] was “YES” and the “Loss of Nr5a2” value [8, 14] was “YES”. For the same molecule, the “Loss of TBX3” value [8, 14] was “YES”, the “Transcripts with decreased expression compared to control (qPCR)” value ([8]; wtD3 mESCs, 10 μM peptide, 24 h) was “Nanog, Tbx3, Nr0b1 and Nr5a2” and the “Transcripts unchanged / not inhibited (qPCR)” value ([8]; wtD3 mESCs, 24 h treatment) was “Klf4 and Esrrb”. For the same molecule, the NANOG protein expression [9] was “decreased levels of protein”, the “OCT4 protein expression in the presence of SU5402” value ([5]; peptide-treated wtD3 mESCs plus FGFR1 inhibitor SU5402, after 5 days) was “increased cell death and statistically significant loss of OCT protein expression” and the “pERK1/2 compared to untreated mESCs” value [10] was “decreased pERK1/2”. For the same molecule, the “Binding of fluorescent-tagged peptide to wtD3 versus Ecad−/− mESCs” value [6] was “binds specifically to E-cadherin” and the “cell viability in monolayer culture” value [11] was “no significant difference in cell viability”.

With `NC(=O)c1ccc(-c2nc(-c3ccc4c(c3)OCO4)c(-c3ccccn3)[nH]2)cc1` [SB431542] the “OCT4 protein expression, inhibitor with vehicle control” value [5] was “maintained expression of OCT4 protein”.

Molecule AWELYYPLRANL [Epep (E-cadherin binding peptide H-…-NH2) S1A] has a Kd [12] of 1.19 µM.

Work on SWELYYRLRANL [EpepP7R] yielded a Kd [13] of 3.87 µM.
